In PMC12621189, “Optimization of Selective and CNS Penetrant Alkyne-Based TREK Inhibitors: The Discovery and Characterization of ONO-9517601 (VU6022856) and ONO-7927846 (VU6024391)” (Journal of Medicinal Chemistry, 2025):

Legend:
human TREK-2 = molecular target: T1, human TREK-2 (Homo sapiens, UniProt P57789); experiment: hTREK-2 manual patch clamp assay; assay type: cell-based; conditions: human TREK-2, manual patch clamp; read-out: TREK-2 IC50 (human, MPC)
T1 construct: expressed in transfected cells
Protocol: compounds were dissolved into the bathing solution. The effects of test compound on the currents were calculated at 0 mV using the following equations:
% inhibition = (1-post current/pre current) x 100
% inhibition vs compound concentrations were plotted in GraphPad Prism and calculated IC50. […]
hTREK-2 patch clamp assay
HEK293 cells stably expressing human TREK-2 are plated on glass coverslips, and voltage clamped in the whole-cell configuration of the patch clamp technique. Cells are voltage clamped at a holding potential of -80 mV and the stepped to 0 mV for 500 msec. The voltage is subsequently ramped from -120mV to +80 mV over a 500 msec duration. This step-ramp protocol is repeated every 10 sec. The bathing solution contained the following: 135 mM NaCl, 5 mM KCl, 2 mM CaCl2, 1 mM MgCl2, 5 mM D-Glucose, 10 mM HEPES, 10 mM sucrose (adjusted to pH 7.4 with NaOH, 300 mosmol/kg H2O). The pipette solution contained the following: 135 mM KCl, 2 mM MgCl2, 1 mM EGTA, 10 mM HEPES, 2 mM Na2ATP (adjusted to pH 7.35 with KOH, 285 mosmol/kg H2O). Test compounds are dissolved into the bathing solution. Experiments are terminated with the addition of the control compound (tert-butyl (3-((4-(benzyloxy)-2-methylphenyl)carbamoyl)-4-chlorophenyl)carbamate) so that maximal inhibition can be determined. The effects of test compound on the currents can be calculated at 0 mV using the […]

rat TREK-1 [1] = molecular target: T2, rat TREK-1 (Rattus norvegicus, UniProt Q920B6); experiment: rat TREK-1 manual patch clamp; assay type: cell-based; conditions: read-out: TREK-1 IC50 (rat, MPC)
T2 sequence (Q920B6 1-426): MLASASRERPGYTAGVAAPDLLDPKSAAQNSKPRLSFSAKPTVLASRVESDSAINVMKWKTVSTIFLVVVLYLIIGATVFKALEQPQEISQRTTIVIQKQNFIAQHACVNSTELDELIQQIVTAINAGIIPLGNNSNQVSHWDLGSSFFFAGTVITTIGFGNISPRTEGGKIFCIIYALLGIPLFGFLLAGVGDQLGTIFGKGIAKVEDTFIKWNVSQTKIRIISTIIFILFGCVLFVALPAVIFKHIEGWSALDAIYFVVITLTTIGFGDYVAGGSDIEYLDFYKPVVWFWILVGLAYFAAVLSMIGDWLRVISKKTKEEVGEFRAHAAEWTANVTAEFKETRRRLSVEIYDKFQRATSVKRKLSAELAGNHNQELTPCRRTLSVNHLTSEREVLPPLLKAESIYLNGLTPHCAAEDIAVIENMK

in vivo = conditions: rat, po
[2] = Brain exposure at the MED (rat NOR); assay type: in vivo; conditions: oral, 10 at 1 mg/kg, 11 at 0.3 mg/kg
rat TREK-1 [3] = molecular target: T2, rat TREK-1; experiment: rat TREK-1 thallium flux; assay type: cell-based; conditions: read-out: TREK-1 IC50 (rat, Tl+)
MK-801 challenged rat = experiment: MK-801 challenge novel object recognition (NOR), rat; assay type: in vivo; conditions: for Minimum effective dose (MED), MK-801 challenge NOR: PO, MK-801 0.2 mg/kg IP; for reversal of the MK-801 deficit in NOR: oral, 10 at 1, 3 mg/kg, 11 at 0.3, 1 mg/kg
[4] = test system: 5-strains, with and without S9; experiment: AMES assay (5-strains, with and without S9); assay type: cell-based
Nav1.5 = Nav1.5 (Homo sapiens, UniProt Q14524); experiment: MPC ion channel panel, Nav1.5; assay type: cell-based
CACO-2 efflux ratio = assay type: in vitro ADME; conditions: human, pH 7.4, efflux ratio, read-out: CACO-2 (ER)

Chain of Nav1.5 (Q14524 whole entry): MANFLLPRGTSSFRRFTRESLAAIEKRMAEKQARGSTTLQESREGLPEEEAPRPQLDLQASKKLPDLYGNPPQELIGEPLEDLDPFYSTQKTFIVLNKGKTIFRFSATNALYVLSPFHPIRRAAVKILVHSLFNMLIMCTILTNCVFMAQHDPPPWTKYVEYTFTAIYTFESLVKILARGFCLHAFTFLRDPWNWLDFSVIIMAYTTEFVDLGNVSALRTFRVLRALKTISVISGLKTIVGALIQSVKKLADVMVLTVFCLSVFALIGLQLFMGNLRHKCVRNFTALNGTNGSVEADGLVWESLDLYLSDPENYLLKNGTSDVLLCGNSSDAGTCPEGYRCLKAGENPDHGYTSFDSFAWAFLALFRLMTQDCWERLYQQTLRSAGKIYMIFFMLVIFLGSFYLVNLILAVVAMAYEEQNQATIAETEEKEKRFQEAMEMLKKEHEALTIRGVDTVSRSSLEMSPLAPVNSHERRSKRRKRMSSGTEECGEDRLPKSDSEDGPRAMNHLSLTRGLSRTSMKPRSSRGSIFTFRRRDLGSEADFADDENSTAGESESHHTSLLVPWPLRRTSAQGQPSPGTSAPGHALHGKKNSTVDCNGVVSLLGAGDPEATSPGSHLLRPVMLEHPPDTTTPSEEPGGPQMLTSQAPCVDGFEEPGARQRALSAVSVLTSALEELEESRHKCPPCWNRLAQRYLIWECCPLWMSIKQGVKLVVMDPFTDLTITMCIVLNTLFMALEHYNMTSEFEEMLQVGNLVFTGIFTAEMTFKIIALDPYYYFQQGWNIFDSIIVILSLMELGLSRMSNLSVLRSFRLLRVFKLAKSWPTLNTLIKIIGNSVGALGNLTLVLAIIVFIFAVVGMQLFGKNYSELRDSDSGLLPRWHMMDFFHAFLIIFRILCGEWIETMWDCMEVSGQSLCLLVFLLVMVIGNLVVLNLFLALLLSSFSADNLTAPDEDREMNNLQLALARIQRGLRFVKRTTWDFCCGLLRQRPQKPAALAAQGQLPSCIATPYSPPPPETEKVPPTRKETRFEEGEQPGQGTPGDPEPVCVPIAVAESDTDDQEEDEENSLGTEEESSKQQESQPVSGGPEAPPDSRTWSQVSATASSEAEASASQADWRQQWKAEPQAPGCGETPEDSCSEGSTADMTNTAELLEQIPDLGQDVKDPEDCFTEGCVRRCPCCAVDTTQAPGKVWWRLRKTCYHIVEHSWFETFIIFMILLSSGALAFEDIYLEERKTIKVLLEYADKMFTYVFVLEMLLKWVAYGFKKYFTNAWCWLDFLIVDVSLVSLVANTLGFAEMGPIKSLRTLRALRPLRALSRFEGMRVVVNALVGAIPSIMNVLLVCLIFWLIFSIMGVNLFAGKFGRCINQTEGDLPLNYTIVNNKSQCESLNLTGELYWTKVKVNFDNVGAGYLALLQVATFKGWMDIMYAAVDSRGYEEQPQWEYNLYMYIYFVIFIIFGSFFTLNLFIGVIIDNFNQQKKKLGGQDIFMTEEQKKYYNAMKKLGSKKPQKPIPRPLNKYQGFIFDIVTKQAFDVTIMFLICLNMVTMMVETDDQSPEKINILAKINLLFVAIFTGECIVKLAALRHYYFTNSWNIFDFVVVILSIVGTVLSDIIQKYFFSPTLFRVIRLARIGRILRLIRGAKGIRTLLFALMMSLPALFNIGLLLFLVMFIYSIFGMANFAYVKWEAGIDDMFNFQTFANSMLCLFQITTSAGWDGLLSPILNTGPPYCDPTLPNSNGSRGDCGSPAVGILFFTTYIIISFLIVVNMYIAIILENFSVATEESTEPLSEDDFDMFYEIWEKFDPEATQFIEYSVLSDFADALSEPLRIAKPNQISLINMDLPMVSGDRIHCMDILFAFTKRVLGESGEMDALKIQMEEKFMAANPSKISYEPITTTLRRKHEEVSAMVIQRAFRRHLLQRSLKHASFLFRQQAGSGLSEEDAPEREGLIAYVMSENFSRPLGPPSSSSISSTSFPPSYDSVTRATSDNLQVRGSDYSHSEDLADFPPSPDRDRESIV
T1 sequence (P57789 whole entry): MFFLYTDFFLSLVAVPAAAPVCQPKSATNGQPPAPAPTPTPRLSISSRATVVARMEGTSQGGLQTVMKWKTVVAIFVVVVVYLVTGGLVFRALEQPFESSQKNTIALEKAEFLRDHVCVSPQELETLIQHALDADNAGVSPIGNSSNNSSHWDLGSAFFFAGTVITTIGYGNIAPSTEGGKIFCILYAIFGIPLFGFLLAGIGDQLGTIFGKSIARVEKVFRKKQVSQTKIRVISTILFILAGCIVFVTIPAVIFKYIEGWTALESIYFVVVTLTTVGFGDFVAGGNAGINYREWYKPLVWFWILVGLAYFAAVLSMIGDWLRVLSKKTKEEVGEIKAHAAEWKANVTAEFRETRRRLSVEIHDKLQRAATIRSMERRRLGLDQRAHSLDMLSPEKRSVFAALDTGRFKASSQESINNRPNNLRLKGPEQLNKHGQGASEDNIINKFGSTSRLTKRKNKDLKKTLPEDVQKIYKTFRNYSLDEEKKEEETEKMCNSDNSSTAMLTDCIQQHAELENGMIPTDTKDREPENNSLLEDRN

SMILES | IC50 (human TREK-2) [nM] | IC50 (rat TREK-1 [1]) [nM] | NOAEL at 4 days (in vivo) [mg/kg] | Cmax [2] [nM] | IC50 (rat TREK-1 [3]) [nM] | Minimum effective dose (MED), MK-801 challenge NOR (MK-801 challenged rat) [mg/kg] | reversal of the MK-801 deficit in NOR (MK-801 challenged rat) | AMES [4] | inhibition at 10 µM (Nav1.5) [%] | efflux ratio (CACO-2 efflux ratio)
CC(=O)N1CCC(n2ncc(Cl)c2C(=O)Nc2ncc(C#Cc3ccccc3)cc2C)CC1 [Compound 10, 1-(1-Acetylpiperidin-4-yl)-4-chloro-N-(3-methyl-5-(phenylethynyl)pyridin-2-yl)-1H-pyrazole-5-carboxamide] | 81 | 88 | 10 | 218 | 280 | 1 | significantly reversed the MK-801 deficit | Negative | ≤ 50 | 0.7
CC(=O)N1CC[C@@H](n2ncc(Cl)c2C(=O)Nc2ncc(C#Cc3ccc(F)cc3)cc2C)[C@H](F)C1 [Compound 11, 1-((3R,4R)-1-Acetyl-3-fluoropiperidin-4-yl)-4-chloro-N-(5-((4-fluorophenyl)ethynyl)-3-methylpyridin-2-yl)-1H-pyrazole-5-carboxamide] | 110 | 200 | 6 | 58 | 290 | 0.3 | significantly reversed the MK-801 deficit | Negative | ≤ 50 | 0.91
